Data published in ChEMBL document CHEMBL5653631, “A Potent and Selective ULK1 Inhibitor Suppresses Autophagy and Sensitizes Cancer Cells to Nutrient Stress” (iScience, 2018).
Blank lines part the entries; values can stand above or below the compound they belong to.

Experiments:
[1] = biological target: T1, Tyrosine-protein kinase ITK/TSK (Homo sapiens) (UniProt Q08881); test: Inhibition of human recombinant ITK at 500 nM in presence of ATP by radiometric assay relative to control
T1 sequence (whole entry): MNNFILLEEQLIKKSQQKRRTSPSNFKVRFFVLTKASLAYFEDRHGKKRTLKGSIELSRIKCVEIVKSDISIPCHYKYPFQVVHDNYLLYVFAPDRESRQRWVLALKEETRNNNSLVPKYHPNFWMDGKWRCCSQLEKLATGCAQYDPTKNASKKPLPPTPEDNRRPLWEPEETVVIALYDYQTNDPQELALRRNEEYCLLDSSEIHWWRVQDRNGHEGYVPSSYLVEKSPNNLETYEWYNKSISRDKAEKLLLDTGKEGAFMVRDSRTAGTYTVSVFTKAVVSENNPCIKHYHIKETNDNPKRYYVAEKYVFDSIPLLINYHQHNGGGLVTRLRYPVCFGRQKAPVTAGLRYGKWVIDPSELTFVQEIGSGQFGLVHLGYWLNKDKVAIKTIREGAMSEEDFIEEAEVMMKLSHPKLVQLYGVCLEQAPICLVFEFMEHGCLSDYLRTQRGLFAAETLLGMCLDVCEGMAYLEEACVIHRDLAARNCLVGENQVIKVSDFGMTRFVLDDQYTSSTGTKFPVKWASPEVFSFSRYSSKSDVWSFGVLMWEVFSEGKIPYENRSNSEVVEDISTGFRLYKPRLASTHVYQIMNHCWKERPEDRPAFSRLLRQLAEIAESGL

[2] = biological target: T2, Serine/threonine-protein kinase STK11 (Homo sapiens) (UniProt Q15831); test: Inhibition of human recombinant LKB1 at 500 nM in presence of ATP by radiometric assay relative to control
T2 sequence (whole entry): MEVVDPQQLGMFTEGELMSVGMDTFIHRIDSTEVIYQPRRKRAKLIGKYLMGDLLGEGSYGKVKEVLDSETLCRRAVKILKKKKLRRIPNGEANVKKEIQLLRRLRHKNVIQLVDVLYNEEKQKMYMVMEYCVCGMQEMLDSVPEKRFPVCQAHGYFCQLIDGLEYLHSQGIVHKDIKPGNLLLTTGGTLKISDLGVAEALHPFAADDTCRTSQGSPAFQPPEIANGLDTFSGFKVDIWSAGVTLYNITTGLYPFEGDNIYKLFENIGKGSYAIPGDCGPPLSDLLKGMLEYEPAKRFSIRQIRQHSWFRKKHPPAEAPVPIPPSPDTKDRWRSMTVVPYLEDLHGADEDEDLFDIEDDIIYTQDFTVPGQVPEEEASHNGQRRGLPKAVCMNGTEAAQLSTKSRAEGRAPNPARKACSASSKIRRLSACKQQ

[3] = biological target: Calcium/calmodulin-dependent protein kinase type II subunit alpha (Homo sapiens) (UniProt Q9UQM7); test: Inhibition of human recombinant CaMK2a at 500 nM related to control ULK1
[4] = biological target: T3, Inhibitor of nuclear factor kappa-B kinase subunit beta (Homo sapiens) (UniProt O14920); test: Inhibition of human recombinant IKKb at 500 nM related to control ULK1
T3 sequence (whole entry): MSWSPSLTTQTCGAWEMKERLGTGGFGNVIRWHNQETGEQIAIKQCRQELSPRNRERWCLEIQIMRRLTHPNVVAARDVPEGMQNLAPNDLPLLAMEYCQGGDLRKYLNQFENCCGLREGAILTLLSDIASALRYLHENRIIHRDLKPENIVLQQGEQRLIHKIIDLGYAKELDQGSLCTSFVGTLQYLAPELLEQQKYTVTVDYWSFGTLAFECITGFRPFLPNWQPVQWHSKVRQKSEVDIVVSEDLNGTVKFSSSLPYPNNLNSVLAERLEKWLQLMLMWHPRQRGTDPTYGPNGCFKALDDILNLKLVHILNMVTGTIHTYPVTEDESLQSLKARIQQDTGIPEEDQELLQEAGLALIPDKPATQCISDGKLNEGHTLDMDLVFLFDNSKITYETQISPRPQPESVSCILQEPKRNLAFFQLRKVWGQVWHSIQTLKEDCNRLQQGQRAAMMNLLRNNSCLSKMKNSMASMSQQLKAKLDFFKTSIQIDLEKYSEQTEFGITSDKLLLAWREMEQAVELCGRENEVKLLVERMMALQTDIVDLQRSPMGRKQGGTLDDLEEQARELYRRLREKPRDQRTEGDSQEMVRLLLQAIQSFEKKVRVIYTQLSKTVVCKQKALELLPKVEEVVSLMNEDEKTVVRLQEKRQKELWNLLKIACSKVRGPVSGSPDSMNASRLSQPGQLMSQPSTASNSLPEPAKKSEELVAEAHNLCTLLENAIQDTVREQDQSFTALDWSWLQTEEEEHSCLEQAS

[5] = biological target: Serine/threonine-protein kinase D2 (Homo sapiens) (UniProt Q9BZL6); test: Inhibition of human recombinant PKD2 at 500 nM related to control ULK1
[6] = biological target: RAF proto-oncogene serine/threonine-protein kinase (Homo sapiens) (UniProt P04049); test: Inhibition of human recombinant RAF1 at 15 nM in presence of ATP by radiometric assay relative to control
[7] = biological target: Serine/threonine-protein kinase WNK2 (Homo sapiens) (UniProt Q9Y3S1); test: Inhibition of human recombinant Wnk2 at 15 nM in presence of ATP by radiometric assay relative to control
[8] = biological target: T4, Mitogen-activated protein kinase kinase kinase 2 (Homo sapiens) (UniProt Q9Y2U5); test: Inhibition of human recombinant MAP3K2 at 15 nM related to control ULK1
T4 sequence (whole entry): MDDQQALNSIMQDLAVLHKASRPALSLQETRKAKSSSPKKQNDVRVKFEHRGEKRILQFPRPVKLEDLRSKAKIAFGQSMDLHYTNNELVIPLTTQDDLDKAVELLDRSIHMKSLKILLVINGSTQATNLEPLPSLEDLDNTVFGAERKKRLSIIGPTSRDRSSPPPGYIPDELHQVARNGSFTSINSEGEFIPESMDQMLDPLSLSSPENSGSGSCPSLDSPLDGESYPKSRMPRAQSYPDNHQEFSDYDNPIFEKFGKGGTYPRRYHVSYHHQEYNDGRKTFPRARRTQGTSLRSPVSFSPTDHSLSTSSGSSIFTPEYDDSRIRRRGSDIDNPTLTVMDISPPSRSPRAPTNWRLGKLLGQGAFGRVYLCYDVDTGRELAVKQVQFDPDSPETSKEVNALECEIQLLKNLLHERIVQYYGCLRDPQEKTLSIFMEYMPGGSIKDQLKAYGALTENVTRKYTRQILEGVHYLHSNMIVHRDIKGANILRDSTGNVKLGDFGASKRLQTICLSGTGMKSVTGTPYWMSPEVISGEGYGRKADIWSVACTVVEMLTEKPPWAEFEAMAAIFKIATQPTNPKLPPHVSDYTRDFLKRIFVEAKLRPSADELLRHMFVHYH

[9] = biological target: Fibroblast growth factor receptor 4 (Homo sapiens) (UniProt P22455); test: Inhibition of human recombinant FGFR4 at 40 nM in presence of ATP by radiometric assay relative to control
Fibroblast growth factor receptor 4 (Homo sapiens), sequence (P22455 22-802 limits assumed): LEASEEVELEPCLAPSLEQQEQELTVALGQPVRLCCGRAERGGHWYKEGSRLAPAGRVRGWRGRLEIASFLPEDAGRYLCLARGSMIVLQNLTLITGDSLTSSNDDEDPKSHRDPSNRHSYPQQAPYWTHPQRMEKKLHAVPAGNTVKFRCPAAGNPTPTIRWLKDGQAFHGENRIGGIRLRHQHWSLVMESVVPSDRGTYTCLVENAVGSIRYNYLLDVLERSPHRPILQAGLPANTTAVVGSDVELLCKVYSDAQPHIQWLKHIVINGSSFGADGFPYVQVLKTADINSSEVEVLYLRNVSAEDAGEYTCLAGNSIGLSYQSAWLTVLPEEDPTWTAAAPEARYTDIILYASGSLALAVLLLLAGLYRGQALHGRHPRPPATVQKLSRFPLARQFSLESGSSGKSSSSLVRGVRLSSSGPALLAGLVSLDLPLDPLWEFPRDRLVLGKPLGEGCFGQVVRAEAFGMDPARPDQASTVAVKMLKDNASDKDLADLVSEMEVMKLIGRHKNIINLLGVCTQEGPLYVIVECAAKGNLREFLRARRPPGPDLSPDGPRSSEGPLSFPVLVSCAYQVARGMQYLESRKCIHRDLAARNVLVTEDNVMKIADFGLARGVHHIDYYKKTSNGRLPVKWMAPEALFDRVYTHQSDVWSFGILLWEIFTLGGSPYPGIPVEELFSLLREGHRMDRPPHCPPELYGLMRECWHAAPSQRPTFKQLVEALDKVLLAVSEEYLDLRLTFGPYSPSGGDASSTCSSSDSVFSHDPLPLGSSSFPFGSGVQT

Serine/threonine-protein kinase WNK2 (Homo sapiens), sequence (Q9Y3S1 whole entry): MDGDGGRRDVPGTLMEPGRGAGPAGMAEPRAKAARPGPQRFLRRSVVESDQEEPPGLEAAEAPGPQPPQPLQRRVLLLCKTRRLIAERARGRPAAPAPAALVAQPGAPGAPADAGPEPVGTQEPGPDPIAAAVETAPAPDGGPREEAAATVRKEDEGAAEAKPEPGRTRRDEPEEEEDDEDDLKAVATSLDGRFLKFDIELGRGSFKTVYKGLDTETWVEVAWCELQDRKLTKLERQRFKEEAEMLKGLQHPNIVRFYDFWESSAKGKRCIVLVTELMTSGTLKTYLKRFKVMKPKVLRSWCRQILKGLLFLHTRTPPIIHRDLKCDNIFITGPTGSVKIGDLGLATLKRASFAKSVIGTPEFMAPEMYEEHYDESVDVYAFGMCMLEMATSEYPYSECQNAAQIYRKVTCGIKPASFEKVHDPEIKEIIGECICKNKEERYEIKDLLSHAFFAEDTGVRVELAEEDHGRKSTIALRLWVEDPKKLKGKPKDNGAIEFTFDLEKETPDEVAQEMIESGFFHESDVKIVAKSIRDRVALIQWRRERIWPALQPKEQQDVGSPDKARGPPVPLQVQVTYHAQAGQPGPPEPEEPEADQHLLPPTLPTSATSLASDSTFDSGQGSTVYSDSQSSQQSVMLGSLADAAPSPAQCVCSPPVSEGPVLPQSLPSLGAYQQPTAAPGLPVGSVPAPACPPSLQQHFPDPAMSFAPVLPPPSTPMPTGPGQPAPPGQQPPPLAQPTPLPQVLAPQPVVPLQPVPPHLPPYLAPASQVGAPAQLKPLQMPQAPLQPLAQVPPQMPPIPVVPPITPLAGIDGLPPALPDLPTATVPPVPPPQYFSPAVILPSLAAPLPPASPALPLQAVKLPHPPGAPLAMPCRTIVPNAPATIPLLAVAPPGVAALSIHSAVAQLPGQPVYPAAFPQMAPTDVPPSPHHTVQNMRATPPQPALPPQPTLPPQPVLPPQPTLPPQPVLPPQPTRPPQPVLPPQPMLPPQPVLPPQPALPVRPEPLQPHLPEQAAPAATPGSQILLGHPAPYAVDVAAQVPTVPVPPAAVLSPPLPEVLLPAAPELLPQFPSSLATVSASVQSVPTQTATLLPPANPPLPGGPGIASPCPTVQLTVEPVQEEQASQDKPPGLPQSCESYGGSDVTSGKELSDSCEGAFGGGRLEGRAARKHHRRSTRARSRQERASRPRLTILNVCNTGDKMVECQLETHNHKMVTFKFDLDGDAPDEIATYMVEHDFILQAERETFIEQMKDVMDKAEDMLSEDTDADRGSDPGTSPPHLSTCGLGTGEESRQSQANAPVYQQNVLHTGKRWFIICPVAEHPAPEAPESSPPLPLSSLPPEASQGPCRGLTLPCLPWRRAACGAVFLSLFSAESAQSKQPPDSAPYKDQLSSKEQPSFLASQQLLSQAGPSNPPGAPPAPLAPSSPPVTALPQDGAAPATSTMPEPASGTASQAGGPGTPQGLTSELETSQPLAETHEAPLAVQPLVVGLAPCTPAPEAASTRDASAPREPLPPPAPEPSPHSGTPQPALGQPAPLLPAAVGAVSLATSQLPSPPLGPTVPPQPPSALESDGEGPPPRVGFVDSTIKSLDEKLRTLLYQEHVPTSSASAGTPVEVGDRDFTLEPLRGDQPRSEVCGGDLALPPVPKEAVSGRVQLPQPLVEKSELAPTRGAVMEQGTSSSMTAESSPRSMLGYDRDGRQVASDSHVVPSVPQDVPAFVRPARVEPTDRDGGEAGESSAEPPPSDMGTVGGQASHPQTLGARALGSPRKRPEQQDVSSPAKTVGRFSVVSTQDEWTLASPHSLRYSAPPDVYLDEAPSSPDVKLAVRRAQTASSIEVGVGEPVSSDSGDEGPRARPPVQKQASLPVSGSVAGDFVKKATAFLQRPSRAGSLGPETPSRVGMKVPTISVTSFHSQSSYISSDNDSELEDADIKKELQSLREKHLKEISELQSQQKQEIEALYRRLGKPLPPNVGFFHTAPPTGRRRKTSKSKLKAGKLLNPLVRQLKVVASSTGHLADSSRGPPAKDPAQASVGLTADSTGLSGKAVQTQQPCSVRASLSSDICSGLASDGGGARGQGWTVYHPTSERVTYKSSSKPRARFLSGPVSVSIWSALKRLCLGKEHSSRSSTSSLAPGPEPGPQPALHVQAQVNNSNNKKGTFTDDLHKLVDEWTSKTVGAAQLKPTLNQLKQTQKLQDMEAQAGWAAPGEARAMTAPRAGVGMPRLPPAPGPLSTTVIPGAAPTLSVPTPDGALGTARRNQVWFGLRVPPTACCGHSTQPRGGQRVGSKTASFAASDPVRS
RAF proto-oncogene serine/threonine-protein kinase (Homo sapiens), sequence (P04049 whole entry): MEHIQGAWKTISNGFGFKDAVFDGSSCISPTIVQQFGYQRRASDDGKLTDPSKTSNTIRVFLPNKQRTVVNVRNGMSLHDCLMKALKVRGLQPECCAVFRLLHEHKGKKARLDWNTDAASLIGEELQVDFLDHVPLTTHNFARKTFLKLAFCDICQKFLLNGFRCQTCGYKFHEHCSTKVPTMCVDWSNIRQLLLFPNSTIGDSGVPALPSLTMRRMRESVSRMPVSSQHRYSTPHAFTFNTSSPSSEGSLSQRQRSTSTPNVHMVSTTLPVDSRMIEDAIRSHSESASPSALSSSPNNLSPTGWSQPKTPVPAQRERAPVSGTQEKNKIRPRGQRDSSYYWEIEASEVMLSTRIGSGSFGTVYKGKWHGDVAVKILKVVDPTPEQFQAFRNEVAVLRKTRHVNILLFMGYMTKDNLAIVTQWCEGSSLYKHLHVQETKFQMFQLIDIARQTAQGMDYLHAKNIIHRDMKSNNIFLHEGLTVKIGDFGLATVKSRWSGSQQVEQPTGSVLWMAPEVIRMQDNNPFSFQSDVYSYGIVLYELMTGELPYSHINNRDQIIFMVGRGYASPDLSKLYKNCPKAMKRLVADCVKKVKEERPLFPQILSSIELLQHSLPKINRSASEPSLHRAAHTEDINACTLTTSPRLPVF
Calcium/calmodulin-dependent protein kinase type II subunit alpha (Homo sapiens), sequence (Q9UQM7 whole entry): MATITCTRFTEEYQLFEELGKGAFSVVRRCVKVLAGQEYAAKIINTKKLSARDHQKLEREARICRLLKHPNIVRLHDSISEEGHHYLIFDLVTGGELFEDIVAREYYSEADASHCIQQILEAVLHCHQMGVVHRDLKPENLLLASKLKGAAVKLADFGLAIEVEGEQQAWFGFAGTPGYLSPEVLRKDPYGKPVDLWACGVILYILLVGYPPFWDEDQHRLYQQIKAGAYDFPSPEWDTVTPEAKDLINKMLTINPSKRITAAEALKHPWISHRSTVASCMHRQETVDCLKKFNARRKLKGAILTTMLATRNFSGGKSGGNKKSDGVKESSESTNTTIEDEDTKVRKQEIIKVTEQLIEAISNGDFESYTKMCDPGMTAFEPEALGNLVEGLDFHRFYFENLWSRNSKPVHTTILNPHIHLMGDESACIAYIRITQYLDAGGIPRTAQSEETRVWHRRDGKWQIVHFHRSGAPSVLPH
Serine/threonine-protein kinase D2 (Homo sapiens), sequence (Q9BZL6 whole entry, looked up): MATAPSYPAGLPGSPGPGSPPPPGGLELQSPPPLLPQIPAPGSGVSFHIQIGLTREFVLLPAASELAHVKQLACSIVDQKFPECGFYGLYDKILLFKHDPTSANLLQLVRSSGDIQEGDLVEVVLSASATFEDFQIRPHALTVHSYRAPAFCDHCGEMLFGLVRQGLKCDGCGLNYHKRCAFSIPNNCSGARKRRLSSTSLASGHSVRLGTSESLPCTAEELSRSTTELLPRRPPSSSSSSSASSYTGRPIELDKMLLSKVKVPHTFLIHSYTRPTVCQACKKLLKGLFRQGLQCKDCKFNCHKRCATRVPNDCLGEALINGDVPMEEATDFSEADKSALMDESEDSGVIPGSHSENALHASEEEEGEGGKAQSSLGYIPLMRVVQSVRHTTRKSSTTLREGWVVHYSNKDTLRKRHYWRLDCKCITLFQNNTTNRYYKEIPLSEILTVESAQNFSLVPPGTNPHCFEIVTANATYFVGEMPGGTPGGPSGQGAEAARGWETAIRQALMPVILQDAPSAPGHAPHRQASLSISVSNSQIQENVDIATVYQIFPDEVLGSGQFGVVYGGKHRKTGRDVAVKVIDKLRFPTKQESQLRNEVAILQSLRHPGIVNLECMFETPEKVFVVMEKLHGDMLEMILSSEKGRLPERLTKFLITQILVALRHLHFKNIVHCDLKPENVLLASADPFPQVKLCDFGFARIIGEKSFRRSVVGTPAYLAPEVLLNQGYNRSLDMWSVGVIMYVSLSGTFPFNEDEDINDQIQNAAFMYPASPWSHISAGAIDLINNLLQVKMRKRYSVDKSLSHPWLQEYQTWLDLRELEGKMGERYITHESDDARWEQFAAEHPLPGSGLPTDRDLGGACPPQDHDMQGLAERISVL

inhibition [1]: 1% | inhibition [2]: 12% | fold change (FC) [3]: 0 | fold change (FC) [4]: 0.03 | fold change (FC) [5]: 0.16
SMILES: CNC(=O)c1ccccc1Oc1nc(Nc2cc(OC)c(OC)c(OC)c2)ncc1Br

inhibition [6]: 8% | inhibition [7]: 2% | fold change (FC) [8]: 0.03
SMILES: CC(C)[C@H](NC(=O)c1cc(-c2cnn3cc(-c4ccc(OCCN5CCCCC5)cc4)cnc23)cs1)C(F)(F)F

inhibition [9]: 0%
SMILES: O=C(N[C@@H](C1CC1)C(F)(F)F)c1cc(-c2cnn3cc(-c4ccc(F)cc4)cnc23)cs1
